Measurements reported in patent US20120129870A1, “PIPERAZINYL DERIVATIVES USEFUL AS MODULATORS OF THE NEUROPEPTIDE Y2 RECEPTOR” (priority 2007, published 2012).

How the values were obtained:
NPY Y2 receptor [1] = biological target: T1, NPY Y2 receptor (Homo sapiens, UniProt P49146); assay: Neuropeptide Y2 pKB assay (FLIPR, KAN-Ts cells stably expressing chimeric G proteins); assay type: cell-based; settings: apparent pKB, modified Cheng-Prusoff correction
T1 sequence (P49146 1-381): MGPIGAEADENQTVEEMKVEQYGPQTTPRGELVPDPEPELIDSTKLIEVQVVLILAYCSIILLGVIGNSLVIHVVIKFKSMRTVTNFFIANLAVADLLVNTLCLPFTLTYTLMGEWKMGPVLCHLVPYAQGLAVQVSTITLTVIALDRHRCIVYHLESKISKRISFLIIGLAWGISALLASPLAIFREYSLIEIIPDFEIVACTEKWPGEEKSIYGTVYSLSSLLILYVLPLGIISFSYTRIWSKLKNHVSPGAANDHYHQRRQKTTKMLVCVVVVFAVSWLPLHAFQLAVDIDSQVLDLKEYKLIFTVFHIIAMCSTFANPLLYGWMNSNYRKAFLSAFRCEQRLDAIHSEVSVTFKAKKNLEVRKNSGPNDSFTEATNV
Protocol: The assay was performed using the fluorimetric imaging plate reader (FLIPR) format as described in Dautzenberg, F. M., Biochemical Pharmacology 2005, 69, 1493.
KAN-Ts cells stably expressing chimeric G proteins were seeded at a density of 100,000 cells into poly-d-lysine coated 384-well blackwall, clear-bottom microtiter plates (Corning, N.Y.). One day later, the medium was removed and 50 μl loading medium DMEM high glucose, without serum, supplemented with 10 mM HEPES-acid, 0.1% BSA, 5 mM probenecid and 2 μM Fluo-3AM was added. Cells were loaded for 1 h at 37° C., washed twice with 50 μl assay buffer (5 mM HEPES-acid, 140 mM NaCl, 1 mM MgCl2, 5 mM KCl, 10 mM glucose) and then 30 μl assay buffer was added. Cells were further pre-incubated at room temperature before adding agonists or agonists plus antagonists in 20 μl assay buffer and then measured on a T-channel fluorometric imaging plate reader (FLIPR, Molecular Devices, Sunnyvale, Calif.). Antagonistic potency values were converted to apparent pKB values using a modified Cheng-Prusoff correction. Apparent pKB was calculated as pKB=−log IC50/1+[conc agonist/EC50].

NPY Y2 receptor [2] = biological target: T1, NPY Y2 receptor; assay: Neuropeptide Y2 radioligand binding assay ([125I]PYY, KAN-Ts membranes); parameters: endogenous in cells; host or cells: KAN-Ts cells (membrane preparation); settings: KAN-Ts membranes endogenously expressing Y2, [125I]PYY (80 pM), 1 h at rt
Summary of the method: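 Membranes from KAN-Ts cells with endogenous Y2 receptors, incubated with 80 pM [125I]PYY ± compound for 1 h at rt in HEPES/NaCl/CaCl2/MgSO4 buffer, then filtered and counted. Nonspecific binding defined with […]. IC50 from sigmoidal fit; Ki = IC50/(1+C/KD).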

Row | SMILES | Kb (NPY Y2 receptor [1]) | IC50 (NPY Y2 receptor [2])
1 | CCC(CC)C(=O)Nc1ccc(N2CCN(C(c3ccccc3)c3noc(CF)n3)CC2)c(F)c1 (stereo not shown) [Compound 235, 2-Ethyl-N-(3-fluoro-4-{4-[(5-fluoromethyl-[1,2,4]-oxadiazol-3-yl)-phenyl-methyl]-piperazin-1-yl}-phenyl)-butyramide] | 63.1 nM | 30 nM
2 | CCC(CC)C(=O)Nc1ccc(N2CCN(C(c3ccccc3)c3ccccc3)CC2)c(F)c1 [Compound 4, N-[4-(4-Benzhydryl-piperazin-1-yl)-3-fluoro-phenyl]-2-ethyl-butyramide] | 79.4 nM | 33 nM
3 | CCC(CC)C(=O)Nc1ccc(N2CCN(C(c3ccccc3)c3ncco3)CC2)c(C)c1 (stereo not shown) [Compound 85, 2-Ethyl-N-{3-methyl-4-[4-(oxazol-2-yl-phenyl-methyl)-piperazin-1-yl]-phenyl}-butyramide] | 126 nM | 75 nM
4 | CCC(CC)C(=O)Nc1ccc(N2CCN(C(c3ccc(F)cc3)c3ncco3)CC2)c(C#N)c1 (stereo not shown) [Compound 139, N-(3-Cyano-4-{4-[(4-fluoro-phenyl)-oxazol-2-yl-methyl]-piperazin-1-yl}-phenyl)-2-ethyl-butyramide] | 25.1 nM | 21 nM
5 | CCC(CC)C(=O)Nc1ccc(N2CCN(C(c3ccccc3)c3nc4ccccc4s3)CC2)c(F)c1 (stereo not shown) [Compound 168, N-{4-[4-(Benzothiazol-2-yl-phenyl-methyl)-piperazin-1-yl]-3-fluoro-phenyl}-2-ethyl-butyramide] | 70.8 nM | 58 nM
6 | CCC(CC)C(=O)Nc1ccc(N2CCN(C(c3ccccc3)c3ncco3)CC2)c(F)c1 (single isomer, unassigned) [Compound 60, 2-Ethyl-N-{3-fluoro-4-[4-(oxazol-2-yl-phenyl-methyl)-piperazin-1-yl]-phenyl}-butyramide] | 63.1 nM | 34 nM
7 | CCC(CC)C(=O)Nc1ccc(N2CCN(C(c3ccccc3)c3ncco3)CC2)c(F)c1 (stereo not shown) [Compound 20, 2-Ethyl-N-{3-fluoro-4-[4-(oxazol-2-yl-phenyl-methyl)-piperazin-1-yl]-phenyl}-butyramide] | 50.1 nM | 40 nM
8 | CCC(CC)C(=O)Nc1ccc(N2CCN(C(c3ccccc3)c3ncccn3)CC2)c(F)c1 (stereo not shown) [Compound 40, 2-Ethyl-N-{3-fluoro-4-[4-(phenyl-pyrimidin-2-yl-methyl)-piperazin-1-yl]-phenyl}-butyramide] | 100 nM | 52 nM
9 | CC(CC(F)(F)F)C(=O)Nc1ccc(N2CCN(C(c3ccccc3)c3ncco3)CC2)c(C#N)c1 (stereo not shown) [Compound 110, N-{3-Cyano-4-[4-(oxazol-2-yl-phenyl-methyl)-piperazin-1-yl]-phenyl}-4,4,4-trifluoro-2-methyl-butyramide] | 100 nM | 29 nM
10 | CC[C@@H](C)C(=O)Nc1ccc(N2CCN(C(c3ccccc3)c3ncco3)CC2)c(F)c1 (stereo in doubt) [Compound 91, N-{3-Fluoro-4-[4-(oxazol-2-yl-phenyl-methyl)-piperazin-1-yl]-phenyl}-2-methyl-butyramide] | 158 nM | 240 nM
11 | CCC(CC)C(=O)Nc1ccc(N2CCN(C(c3ccccc3)c3cc(C)no3)CC2)c(F)c1 (stereo not shown) [Compound 230, 2-Ethyl-N-(3-fluoro-4-{4-[(3-methyl-isoxazol-5-yl)-phenyl-methyl]-piperazin-1-yl}-phenyl)-butyramide] | 25.1 nM | 12 nM
12 | CCC(CC)C(=O)Nc1ccc(N2CCN(C(c3cccc(F)c3)c3ncco3)CC2)c(F)c1 (stereo not shown) [Compound 132, 2-Ethyl-N-(3-fluoro-4-{4-[(3-fluoro-phenyl)-oxazol-2-yl-methyl]-piperazin-1-yl}-phenyl)-butyramide] | 63.1 nM | 45 nM
13 | CCC(CC)C(=O)Nc1ccc(N2CCN(C(c3ccccc3)c3nnc(C(C)C)o3)CC2)c(F)c1 (stereo not shown) [Compound 160, 2-Ethyl-N-(3-fluoro-4-{4-[(5-isopropyl-[1,3,4]-oxadiazol-2-yl)-phenyl-methyl]-piperazin-1-yl}-phenyl)-butyramide] | 100 nM | 43 nM
14 | CCC(CC)C(=O)Nc1ccc(N2CCN(C(c3ccccc3)c3noc(-c4ccccc4)n3)CC2)c(F)c1 (stereo not shown) [Compound 240, 2-Ethyl-N-(3-fluoro-4-{4-[phenyl-(5-phenyl-[1,2,4]-oxadiazol-3-yl)-methyl]-piperazin-1-yl}-phenyl)-butyramide] | 126 nM | 39 nM
15 | CCC(CC)C(=O)Nc1ccc(N2CCN(C(c3ccccc3)c3ncco3)CC2)c(Br)c1 (stereo not shown) [Compound 237, N-{3-Bromo-4-[4-(oxazol-2-yl-phenyl-methyl)-piperazin-1-yl]-phenyl}-2-ethyl-butyramide] | 63.1 nM | 16 nM
16 | CCC(CC)C(=O)Nc1ccc(N2CCN(C(c3ccccc3)c3nccs3)CC2)c(F)c1 (stereo not shown) [Compound 39, 2-Ethyl-N-{3-fluoro-4-[4-(phenyl-thiazol-2-yl-methyl)-piperazin-1-yl]-phenyl}-butyramide] | 63.1 nM | 28 nM
17 | O=C(Nc1ccc(N2CCN(C(c3ccccc3)c3ncco3)CC2)c(F)c1)C1CCCC1 (stereo not shown) [Compound 54, Cyclopentanecarboxylic acid {3-fluoro-4-[4-(oxazol-2-yl-phenyl-methyl)-piperazin-1-yl]-phenyl}amide] | 10000 nM | 95 nM
